Key:
[1] = xn = mol fraction of the nth substance listed; conditions: 101 kPa, Liquid; for speed of sound: Linear variable-path acoustic interferometer; for mass density: Vibrating tube method
[2] = excess molar enthalpy (molar enthalpy of mixing); xn = mol fraction of the nth substance listed; conditions: 298.15 K, 101 kPa, Liquid, 2-drop calorimetry

Cc1ccccn1 [2-methylpyridine] + CCn1cc[n+](C)c1.F[B-](F)(F)F
[1]
Conditions	mass density, 293.15 K [kg/m3]	mass density, 298.15 K [kg/m3]	mass density, 303.15 K [kg/m3]	mass density, 308.15 K [kg/m3]	speed of sound, 293.15 K [m/s]	speed of sound, 298.15 K [m/s]	speed of sound, 303.15 K [m/s]	speed of sound, 308.15 K [m/s]
x2 = 0.1219	1013.9	1010.93	1006.33	1002.14	1438.3	1415.5	1397.7	1379.6
x2 = 0.1776	1043.45	1040.53	1036.16	1032.07	1457.5	1434.8	1417.2	1400
x2 = 0.2341	1071.82	1068.69	1064.53	1060.5	1478.2	1454.8	1438.3	1422
x2 = 0.2778	1092.45	1089.12	1085.1	1081.18	1494.2	1471	1454.4	1439.1
x2 = 0.3209	1111.76	1108.07	1104.33	1100.37	1509.3	1487.7	1470.8	1455.6
x2 = 0.3721	1133.09	1129.16	1125.57	1121.65	1527.3	1506.4	1490.5	1475.5
x2 = 0.4232	1152.77	1148.64	1145.21	1141.21	1544.8	1525.5	1509	1495
x2 = 0.4727	1170.31	1166.05	1162.72	1158.68	1560	1542.7	1525.2	1513.6
x2 = 0.5217	1186.07	1181.95	1178.63	1174.56	1572.9	1557.7	1540.6	1530.3
x2 = 0.5742	1201.42	1197.47	1194.21	1190.05	1585.5	1572.9	1555.3	1545.9
x2 = 0.6217	1214.02	1210.21	1206.93	1202.85	1595.6	1585	1567.5	1559
x2 = 0.6724	1226.14	1222.71	1219.36	1215.15	1603.9	1596.5	1577.8	1571.1
x2 = 0.7228	1236.96	1233.88	1230.44	1226.27	1609.8	1605.1	1586.2	1581.5
x2 = 0.7725	1246.69	1243.95	1240.41	1236.19	1614.7	1611.1	1592.1	1589
x2 = 0.8216	1255.54	1252.96	1249.32	1245.1	1618.6	1615.5	1596.9	1593.8
x2 = 0.8741	1264.27	1261.73	1257.98	1253.82	1621.8	1618.7	1600.8	1597.4
x2 = 0.9218	1271.82	1269.01	1265.26	1261.08	1624.6	1619.8	1603.5	1598.2
x2 = 0.9319	1273.41	1270.5	1266.74	1262.57	1625.3	1619.6	1604	1598.3

[2]
Conditions	excess molar enthalpy [kcal/mol]
x2 = 0.1132	-0.0261
x2 = 0.1578	-0.0354
x2 = 0.2087	-0.0464
x2 = 0.2467	-0.0538
x2 = 0.2976	-0.0636
x2 = 0.3245	-0.0684
x2 = 0.3789	-0.078
x2 = 0.4235	-0.0852
x2 = 0.4876	-0.0945
x2 = 0.5123	-0.0976
x2 = 0.5734	-0.104
x2 = 0.6145	-0.107
x2 = 0.6634	-0.108
x2 = 0.7145	-0.104
x2 = 0.7856	-0.0953
x2 = 0.8265	-0.086
x2 = 0.8723	-0.0727
x2 = 0.9226	-0.05

From the NIST ThermoML archive (doi:10.1016/j.jct.2012.07.007)
